{"source": "paper PMC8845285", "about": "“Serotoninergic receptor ligands improve Tamoxifen effectiveness on breast cancer cells” (BMC Cancer, 2022)", "test_system": "CTGF", "experiment": "CTGF mRNA levels in MCF7-R cells, qPCR", "assay_type": "cell-based, human", "conditions": "SER 20 μM", "protocol": "Total RNA was isolated from cells, quantified (NanoDrop spectrophotometer, Life Technologies, Carlsbad, CA, USA) and reverse transcribed according to the manufacturer’s instructions. Semiquantitative PCR and qPCR assays were performed according to manufacturer’s instructions for Bio-Rad T100 thermal cycler and CFX Connect Real Time system (Biorad, Hercules, CA, USA), respectively. Relative gene expression quantification was measured by 2^−ΔΔCt method normalizing for the reference sample using Rps23 (Ribosomal Protein S23) as housekeeping gene.\nFig. 9 Effect of SER79 and SER68 on Tamoxifen-resistant (MCF7-R) cells. a Estrogen starved MCF7-R were treated with SER79 (20 μM, 5 μM) or SER68 (20 μM) in presence of E2 (100 nM). b Estrogen-starved MCF7-R were treated with Tamoxifen (5 μM) in presence of E2 and SER79 (20 μM) or SER68 (20 μM). a,b As positive control, the cells were treated with E2 alone, in absence or in presence of SER (dotted line). After 72 h, cell viability was assessed by sulforhodamine B assay (see Methods). The results were reported as percentage of viable cells compared to positive control, considered as maximum viability (100%). c mRNA levels of CTGF were determined by qPCR (see Methods and Table 1) in MCF7-R cells upon treatment with SER68 (20 μM). […]"}
{"smiles": "O=C1C2C3C=CC(C3)C2C(=O)N1OCCN1CCN(c2ccc(Cl)c(Cl)c2)CC1", "note": "(stereo not shown) [SER68]", "values": [{"measurement": "effect on CTGF mRNA content of MCF7-R cells", "result": "did not further reduce"}]}
